This note sets out measurements from patent US20120022024A1, “ANTI-BACTERIAL COMPOSITIONS AND METHODS INCLUDING TARGETING VIRULENCE FACTORS OF STAPHYLOCOCCUS AUREUS” (priority 2009, published 2012).

In assay [1] the test system is staphyloxanthin (STX) biosynthesis in S. aureus. Nature of the assay: Staphyloxanthin biosynthesis inhibition assay. Type of assay: cell-based, Staphylococcus aureus. On the procedure: The question next arises: how potent are these compounds in inhibiting STX biosynthesis in S. aureus? We thus treated S. aureus bacteria with serially diluted compounds at 37° C. for 3 days, after which the STX pigment was extracted with methanol. Optical densities were measured at 450 nm and IC50 values for inhibition of pigment formation for each compound were calculated using a standard dose-response curve. The rank ordered IC50 values of the 38 compounds investigated are shown in Table 7 and dose-response curves of representative compounds are shown in FIG. 2.
The S. aureus strain used was the WT clinical isolate (Pig1) (4). S. aureus was cultured in THB (1 mL) in the presence of inhibitor compounds for 72 h, in duplicate. Cells were then centrifuged and washed twice with PBS. STX was extracted with MeOH and the O.D. was determined at 450 nm using a Perkin Elmer MBA 2000 (Norwalk, Conn.) spectrophotometer.

Assay [2] concerns the target S. aureus CrtM (dehydrosqualene synthase) (Staphylococcus aureus, UniProt A9JQL9). Nature of the assay: CrtM enzyme inhibition assay.
Where [3] appears, read: Staphylococcus aureus, 72 h, read-out: Staphyloxanthin IC50.
The mark [4] stands for this setting: read-out: CrtM enzyme experimental activity IC50, Table 5.
Setting [5] is: Staphylococcus aureus, read-out: IC50(STX).
[6] abbreviates: Table 7, S. aureus, 37° C., 3 days, read-out: Staphyloxanthin IC50.
[7] abbreviates: read-out: CrtM IC50 values, Table 4.

Structures can show the parent of a compound that is named as a salt. Where two headings read alike, the source gives them in different places. Some results are limits rather than exact numbers.

Chain of S. aureus CrtM (dehydrosqualene synthase) (A9JQL9 whole entry): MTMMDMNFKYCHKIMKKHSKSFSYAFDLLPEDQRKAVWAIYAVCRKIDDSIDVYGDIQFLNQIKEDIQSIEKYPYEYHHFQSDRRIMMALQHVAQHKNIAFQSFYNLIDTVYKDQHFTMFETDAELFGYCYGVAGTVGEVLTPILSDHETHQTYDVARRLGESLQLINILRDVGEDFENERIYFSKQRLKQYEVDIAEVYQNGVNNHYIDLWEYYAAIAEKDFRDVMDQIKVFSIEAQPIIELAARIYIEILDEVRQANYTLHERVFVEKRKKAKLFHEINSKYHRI

Turning to `Cc1ccc(-c2ccc(CCCC(P(=O)(O)O)S(=O)(=O)O)cc2)cc1` (centres unmarked) [Compound 11, 1-Phosphono-4-[4-(4-methylphenyl)phenyl]butylsulfonic acid tripotassium salt], the half-inhibitory concentration (IC50) (usually the point on the concentration scale where inhibition reaches its midpoint) turned out to be 0.18 µM in assay [1] (setting [3]) and 24.5 µM in assay [2] (setting [4]).
As to `O=C(CP(=O)(O)O)NCCc1cccc(Oc2ccccc2)c1` [compound 897], the IC50 in assay [1] (setting [5]) amounted to 3 µM; in assay [2] it was 323 µM.
In the case of “1-Phosphono-4-[3-(2-fluorophenoxy)phenyl]butylsulfonic acid tripotassium salt [Compound 21]”, the IC50 in assay [1] (setting [6]) was determined as 0.51 µM; in assay [2] (setting [7]), 6.9 µM; in assay [2] (setting [4]) it was 6.9 µM. For the same molecule, in assay [2] (Table 5), the “CrtM enzyme experimental activity pIC50” value came out at 5.16.
For `CN(CCCc1cccc(Oc2ccccc2)c1)C(=O)CP(=O)(O)O` [compound 848], the IC50 was found to be 8.6 µM in assay [1] (setting [5]) and 193 µM in assay [2].
In the same order, the values of `CC(C)(C(=O)NCCCc1cccc(Oc2ccccc2)c1)P(=O)(O)O` [compound 847] are greater than 500 µM and 204 µM.
`Cc1ccc(-c2ccc(CCCN(O)C(=O)CP(=O)(O)O)cc2)cc1` [compound 826]: the IC50 was 4.11 µM in assay [1] (setting [5]) and greater than 1500 µM in assay [2].
With `O=C(CP(=O)(O)O)NCCCCc1cccc(Oc2ccccc2)c1` [compound 898], the IC50 in assay [1] (setting [5]) stood at 35 µM; in assay [2] it was 1080 µM.
For `CCCCc1ccc(-c2ccc(CCCC(P(=O)([O-])[O-])S(=O)(=O)[O-])cc2)cc1.[K+].[K+].[K+]` (centres unmarked) [Compound 12, 1-Phosphono-4-[4-(4-butylphenyl)phenyl]butylsulfonic acid tripotassium salt], the IC50 in assay [1] (setting [3]) turned out to be 0.16 µM.
For `CCn1c2ccccc2c2cc(CCCC(P(=O)(O)O)S(=O)(=O)O)ccc21` (centres unmarked) [Compound 19, 1-Phosphono-4-(9-ethylcarbazole-3-yl)butylsulfonic acid tripotassium salt], the IC50 in assay [1] (setting [3]) was found to be 263 µM.
With `O=P(O)(O)C(CCCc1cccc(Nc2ccccc2)c1)S(=O)(=O)O` (centres unmarked) [Compound 16, 1-Phosphono-4-(3-phenylaminophenyl)butylsulfonic acid tripotassium salt], the IC50 in assay [1] (setting [3]) worked out at 0.5 µM; in assay [2] (read-out: IC50 against CrtM), 43.7 µM.
For `O=C(CP(=O)(O)O)N(O)Cc1cccc(-c2cccc(-c3ccccc3)c2)c1` [compound 810], the half-maximal inhibitory concentration (IC50) in assay [1] (setting [5]) was 158 µM; in assay [2] it was 597 µM.
Regarding `O=C(CP(=O)(O)O)NCCCc1ccc(-c2ccccc2)cc1` [compound 846], in assay [2], half-maximal inhibition (IC50) required 165 µM.
With “1-Phosphono-4-[3-(3-trifluoromethylphenoxy)phenyl]butylsulfonic acid tripotassium salt [Compound 22]”, the IC50 in assay [1] (setting [6]) came out at 0.074 µM; in assay [2] (setting [7]) it was 9.8 µM; in assay [2] (setting [4]), 9.8 µM. In addition, in assay [2] (Table 5), the “CrtM enzyme experimental activity pIC50” value is recorded as 5.01.
Turning to `O=C(CS(=O)(=O)O)NCCCc1cccc(Oc2ccccc2)c1` [compound 884], the results for the IC50 in assay [1] (setting [5]) and in assay [2] were 15 µM and 171 µM, respectively.
In the case of `O=P([O-])([O-])C(CCCc1ccc(Oc2ccccc2)cc1)S(=O)(=O)[O-].[K+].[K+].[K+]` (centres unmarked) [Compound 18, 1-Phosphono-4-(4-phenoxyphenyl)butylsulfonic acid tripotassium salt], the concentration for half-maximal inhibition (IC50) in assay [1] (setting [3]) is 0.19 µM.
For `O=P(O)(O)CS(=O)(=O)NCCCc1cccc(Oc2ccccc2)c1` [compound 841], the values for the IC50 in assay [1] (setting [5]) and in assay [2] were greater than 500 µM and 1640 µM, respectively.
Turning to `O=C(CP(=O)(O)O)NCCCc1cccc(Oc2ccc(Cl)cc2)c1` [compound 926], the IC50 is 0.028 µM in assay [1] (setting [5]) and 15.3 µM in assay [2].
For the molecule “1-Phosphono-4-[3-(3,5-difluorophenoxy)phenyl]butylsulfonic acid tripotassium salt [Compound 33]”, the concentration for half-maximal inhibition (IC50) was found to be 0.015 µM in assay [1] (setting [6]), 4.6 µM in assay [2] (setting [7]) and 4.6 µM in assay [2] (setting [4]). In assay [2] (Table 5), the “CrtM enzyme experimental activity pIC50” value stood at 5.34.
As to `O=P(O)(O)CP(=O)(O)CCCCc1cccc(Oc2ccccc2)c1` [compound 885], the 50% inhibitory concentration (IC50) in assay [1] (setting [5]) worked out at 0.44 µM; in assay [2], 45 µM.
On the same counts, the results for `O=C(CP(=O)(O)O)NCCCc1cccc(Oc2ccccc2)c1` [compound 830] are 0.008 µM and 8.9 µM.
For the molecule `O=C(NO)C(CCCc1cccc(Oc2ccccc2)c1)P(=O)(O)O` (centres unmarked) [compound 809], the IC50 is 4.23 µM in assay [1] (setting [5]) and 859 µM in assay [2].
`CP(=O)([O-])C(CCCc1ccc(-c2ccccc2)cc1)P(=O)([O-])[O-].[K+].[K+].[K+]` (centres unmarked) [Compound 4, dipotassium salt]: in assay [1] (setting [3]), the half-maximal inhibitory concentration (IC50) came to 1.4 µM.
For the molecule `O=C(CP(=O)(O)O)N(O)CCCc1cccc(Oc2ccc(Cl)c(Cl)c2)c1` [compound 927], the IC50 was found to be 0.042 µM in assay [1] (setting [5]) and 67.2 µM in assay [2].
In the case of “1-Phosphono-4-[3-(3,4-dichlorophenoxy)phenyl]butylsulfonic acid tripotassium salt [Compound 31]”, the values for the half-inhibitory concentration (IC50) in assay [1] (setting [6]), in assay [2] (setting [7]) and in assay [2] (setting [4]) were 0.011 µM, 2.2 µM and 2.2 µM, respectively. Besides, the “CrtM enzyme experimental activity pIC50” value in assay [2] (Table 5) stood at 5.65.
As for “1-Phosphono-4-[3-(benzofuran-5-yloxy)phenyl]butylsulfonic acid tripotassium salt [Compound 32]”, the IC50 in assay [1] (setting [6]) came out at 0.015 µM; in assay [2] (setting [7]), 2.1 µM; in assay [2] (setting [4]), 2.1 µM. In addition, the “CrtM enzyme experimental activity pIC50” value in assay [2] (Table 5) was determined as 5.67.
Consider “1-Phosphono-4-[3-(4-phenoxyphenoxy)phenyl]butylsulfonic acid tripotassium salt [Compound 28]”, for which the 50% inhibitory concentration (IC50) in assay [1] (setting [6]) turned out to be 0.1 µM.
As to `O=P([O-])([O-])C(CCCc1ccc(-c2ccccc2)cc1)S(=O)(=O)[O-].[K+].[K+].[K+]` (centres unmarked) [Compound 9, 1-Phosphono-4-(4-biphenyl)butylsulfonic acid tripotassium salt], in assay [1] (setting [3]), the IC50 was 0.35 µM.
For `O=P(O)(O)C(CCCc1cccc(Oc2ccc(Cc3ccccc3)cc2)c1)S(=O)(=O)O` (centres unmarked) [Compound 26, 1-Phosphono-4-[3-(4-benzylphenoxy)phenyl]butylsulfonic acid tripotassium salt], the half-maximal inhibitory concentration (IC50) in assay [1] (setting [3]) was 0.049 µM; in assay [1] (Staphylococcus aureus, read-out: IC50 (STX)), 0.049 µM; in assay [2] (read-out: IC50 (CrtM), Table 1), 13.5 µM.
On to `O=C(CP(=O)(O)O)N(O)CCCc1cccc(Oc2ccccc2)c1` [compound 808], for which the 50% inhibitory concentration (IC50) in assay [1] (setting [5]) was determined as 0.108 µM; in assay [1] (Staphylococcus aureus, read-out: IC50(STX), cell activity), 0.11 µM; in assay [2], 67.5 µM.
With `O=C(CP(=O)(O)O)OCCCc1cccc(Oc2ccccc2)c1` [compound 887], the IC50 in assay [1] (setting [5]) is 1.5 µM; in assay [2] it was 1190 µM.
For `O=P([O-])([O-])[C@H](CCCc1cccc(Oc2ccccc2)c1)S(=O)(=O)[O-].[K+].[K+].[K+]` [Compound (S)-1, (1S)-1-Phosphono-4-(3-phenoxyphenyl)butylsulfonic acid tripotassium salt], the 50% inhibitory concentration (IC50) stood at 0.05 µM in assay [1] (setting [3]) and 1.4 µM in assay [2] (read-out: IC50 against CrtM). Also, in assay [2] (fold, versus (R)-1), the “more active than its (R)-enantiomer in CrtM inhibition” value is on record as roughly 30 ×.
With “1-Phosphono-4-[3-(4-fluorophenoxy)-6-methoxy-phenyl]butylsulfonic acid tripotassium salt [Compound 36]”, the IC50 in assay [1] (setting [6]) was found to be 13.8 µM.
With “1-Phosphono-4-[3-[4-(furan-2-yl)phenoxy]phenyl]butylsulfonic acid tripotassium salt [Compound 29]”, the values for the IC50 in assay [1] (setting [6]), in assay [2] (setting [7]) and in assay [2] (setting [4]) were 1.1 µM, 26.3 µM and 26.3 µM, respectively. Further, the “CrtM enzyme experimental activity pIC50” value in assay [2] (Table 5) came out at 4.58.
Regarding `O=P([O-])([O-])C(CCCc1cccc(Oc2ccc(F)cc2)c1)S(=O)(=O)[O-].[K+].[K+].[K+]` (centres unmarked) [Compound 5, 1-Phosphono-4-[3-(4-fluorophenoxy)phenyl]butylsulfonic acid tripotassium salt], the values for the IC50 in assay [1] (setting [3]), in assay [2] and in assay [2] (read-out: IC50 against CrtM) were 0.052 µM, 2.34 µM and 2.3 µM, respectively. In assay [2], the inhibition constant Ki (commonly a dissociation constant, usually derived from enzyme kinetics or from competition with a known ligand) was roughly 0.005 µM. Moreover, the “as active as 1 in CrtM inhibition” value in assay [2] (fold more active, versus 1) is listed as roughly 4 ×.
Take “1-Phosphono-4-[3-(2-trifluoromethylphenoxy)phenyl]butylsulfonic acid tripotassium salt [Compound 23]”: the IC50 in assay [1] (setting [6]) turned out to be 0.46 µM; in assay [2] (setting [7]) it was 53.7 µM; in assay [2] (setting [4]), 53.7 µM. The “CrtM enzyme experimental activity pIC50” value in assay [2] (Table 5) is reported as 4.27.
As for `O=P(O)(O)C(CCCc1ccc(-c2ccccc2)cc1)P(=O)(O)O` [Compound 2, 4-(4-Biphenyl)butyldiphosphonic acid tetrapotassium salt], the IC50 in assay [1] (setting [3]) was 2.2 µM; in assay [2], 0.48 µM; in assay [2] (read-out: IC50 against CrtM) it was 0.5 µM. The same molecule had a Ki in assay [2] of roughly 0.001 µM.
Take `O=P(O)(O)[C@@H](CCCc1cccc(Oc2ccccc2)c1)S(=O)(=O)O` [Compound (R)-1, (1R)-1-Phosphono-4-(3-phenoxyphenyl)butylsulfonic acid tripotassium salt]: the IC50 in assay [1] (setting [3]) came to 0.31 µM.
The molecule `O=C(O)CC(=O)NCCCc1cccc(Oc2ccccc2)c1` [compound 888] came in with an IC50 in assay [2] greater than 1500 µM.
“1-Phosphono-4-[3-(4-hydroxyphenoxy)phenyl]butylsulfonic acid tripotassium salt [Compound 27]”: the IC50 in assay [1] (setting [6]) is 6.8 µM.
